Source: article PMC9503132, “Development of Halogenated-Chalcones Bearing with Dimethoxy Phenyl Head as Monoamine Oxidase-B Inhibitors” (Pharmaceuticals, 2022)
≈ marks a conversion by molar mass, not a printed value.

Experiments:
Vero cells = test: MTT cytotoxicity test on Vero cells; type: cell-based, African green monkey; settings: 300 µg/mL, 48 h, phase contrast microscope
Description: (§1) Vero cells were treated to various doses (10–500 µg/mL) for 48 h, and relative cell viability was determined by measuring the absorbance at 570 nm with an ELISA microplate.
(§2) Cytotoxicity study of the lead molecule DM2 was carried out as previously described and as in Supplementary Materials described shortly.
(§3) Text S1. Supplementary procedure for toxicity evaluation
(§4) The cell line of Vero (African green monkey kidney cells) was procured from NCCS (Pune, India) and was grown in liquid medium (DMEM) containing 100 ug/mL penicillin, 100 µg/mL streptomycin, and 10% Fetal Bovine Serum (FBS) and preserved under an atmosphere of 5% CO2 at […]
(§5) The DM2 was assayed for in vitro cytotoxicity by MTT assay using the cultured Vero cells.
(§6) Briefly, the cultured Vero cells were produced by cell dissociation with trypsin (trypsinization), collectively in a 15 mL tube. At a density of 1×10^5 cells/mL cells/well (200 µL), the cells were plated for 24-48 h at 37°C into 96-well tissue culture plate in DMEM medium containing 10 % FBS and 1% antibiotic solution. The wells were washed with sterile phosphate buffered saline (PBS) and further allowed to react with varying concentrations of the DM2 in a serum free DMEM medium. The samples were triplicated and the cells were kept for incubation at 37°C for 24 h in a humidified 5% CO2 incubator. MTT (20 µL of 5 mg/mL) was added into each well after the incubation and the cells were incubated for another 2-4 h. The end point was determined by the purple precipitation, which was clearly seen under an inverted microscope. At the end, the medium along with MTT (220 µL) were used for the aspiration of the wells and later washed with 1X PBS (200 µL). In order to dissolve formazan crystals, DMSO (100 µL) was added to the plate with shaking for 5 min. The absorbance at 570 nm was measured using a micro plate reader (Thermo Fisher Scientific, USA). The IC50 value and the percentage cell viability was calculated using GraphPad Prism 8.0 software (USA).

[1] = MTT cytotoxicity test on Vero cells; type: cell-based, African green monkey; settings: African green monkey, Vero cells, MTT
Description: as §1, §2, §3, §4, §5, §6

AChE = AChE (Electrophorus electricus, UniProt O42275); test: AChE inhibition (colorimetric, acetylthiocholine iodide); type: biochemical; settings: read-out: Residual activity at 10 µM (%) AChE
AChE, sequence (O42275 24-633): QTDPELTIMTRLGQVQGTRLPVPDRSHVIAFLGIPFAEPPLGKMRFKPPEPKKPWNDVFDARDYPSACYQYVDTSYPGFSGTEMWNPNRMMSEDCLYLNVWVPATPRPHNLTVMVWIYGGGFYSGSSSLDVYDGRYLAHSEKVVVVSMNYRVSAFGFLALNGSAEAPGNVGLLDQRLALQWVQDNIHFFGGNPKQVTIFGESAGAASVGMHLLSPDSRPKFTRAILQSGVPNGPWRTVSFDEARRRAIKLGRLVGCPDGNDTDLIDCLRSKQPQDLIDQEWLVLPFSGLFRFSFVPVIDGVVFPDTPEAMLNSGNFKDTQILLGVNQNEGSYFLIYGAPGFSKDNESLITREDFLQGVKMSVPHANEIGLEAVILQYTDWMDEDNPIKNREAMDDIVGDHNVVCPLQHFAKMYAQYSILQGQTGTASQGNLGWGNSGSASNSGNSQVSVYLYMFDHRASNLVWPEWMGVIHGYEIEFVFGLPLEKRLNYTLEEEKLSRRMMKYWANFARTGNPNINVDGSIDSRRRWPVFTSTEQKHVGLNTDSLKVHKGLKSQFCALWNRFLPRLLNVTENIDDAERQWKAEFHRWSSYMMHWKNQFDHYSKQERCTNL
Description: (§7) The AChE and BChE inhibitory activities were measured by continuous colorimetric determination method, in the presence of 0.5 mM acetylthiocholine iodide (ACTI) and butyrylthiocholine iodide […]
(§8) POP, K LAB, Daejeon, Korea). After adding the substrate, 0.5 mM 5,5-dithiobis (2-nitrobenzoic acid) (DTNB) was added as the color development solution. The BACE-1 inhibitory activity was evaluated by β-secretase (BACE1) activity detection kit (Sigma-Aldrich, St. Louis, Mo, USA) using a fluorescence spectrometer (FS-2, Scinco, Seoul, Korea).
64. […] A new and rapid colorimetric determination of acetylcholinesterase activity. Biochem. Pharmacol. 7, 88-95. […]

MAO-B [2] = molecular target: T1, MAO-B (Homo sapiens, UniProt P27338); test: MAO-B kinetic study (Lineweaver-Burk and secondary plots); type: biochemical; settings: for Inhibition pattern of MAO-B: Lineweaver-Burk plots, five substrate and three inhibitor concentrations; for Ki: secondary plots of LB slopes vs. inhibitor concentration
T1 construct: purchased Sigma-Aldrich
T1 sequence (P27338 1-520): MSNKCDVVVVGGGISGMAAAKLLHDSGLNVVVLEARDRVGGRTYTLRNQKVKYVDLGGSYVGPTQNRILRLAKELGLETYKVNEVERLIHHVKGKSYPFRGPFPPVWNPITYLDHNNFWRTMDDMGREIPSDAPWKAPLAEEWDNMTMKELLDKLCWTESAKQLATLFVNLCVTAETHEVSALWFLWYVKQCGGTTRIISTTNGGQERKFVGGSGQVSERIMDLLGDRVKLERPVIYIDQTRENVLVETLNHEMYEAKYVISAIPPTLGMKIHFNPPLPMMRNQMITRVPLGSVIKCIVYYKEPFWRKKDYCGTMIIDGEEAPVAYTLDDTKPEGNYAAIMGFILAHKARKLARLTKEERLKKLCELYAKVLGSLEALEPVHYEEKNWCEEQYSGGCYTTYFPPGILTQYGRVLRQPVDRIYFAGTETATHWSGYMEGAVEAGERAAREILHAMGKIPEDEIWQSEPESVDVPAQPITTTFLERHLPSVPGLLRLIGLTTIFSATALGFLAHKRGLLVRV
Description: (§9) MAO-A At 10 µM, compounds’ inhibitory effects on MAOs were initially recorded. […] The SI values of MAO-B were calculated by dividing the IC50 values for MAO-A and those for MAO-B. The MAO-B was used to study the kinetics of substances DM2 or DM18 at five different substrate concentrations. By using the LB plots and their secondary plots at three different inhibitor doses, the inhibition patterns were examined.

MAO-A = molecular target: T2, MAO-A (Homo sapiens, UniProt P21397); test: MAO-A inhibition assay (recombinant enzyme, kynuramine substrate); type: biochemical; settings: recombinant MAO-A, kynuramine 0.06 mM; for remaining activity at 10 µM: 10 µM compound, read-out: Residual Activity at 10 µM (%) MAO-A; for IC50: read-out: IC50 (µM) MAO-A
T2 construct: purchased Sigma-Aldrich
T2 sequence (P21397 1-527): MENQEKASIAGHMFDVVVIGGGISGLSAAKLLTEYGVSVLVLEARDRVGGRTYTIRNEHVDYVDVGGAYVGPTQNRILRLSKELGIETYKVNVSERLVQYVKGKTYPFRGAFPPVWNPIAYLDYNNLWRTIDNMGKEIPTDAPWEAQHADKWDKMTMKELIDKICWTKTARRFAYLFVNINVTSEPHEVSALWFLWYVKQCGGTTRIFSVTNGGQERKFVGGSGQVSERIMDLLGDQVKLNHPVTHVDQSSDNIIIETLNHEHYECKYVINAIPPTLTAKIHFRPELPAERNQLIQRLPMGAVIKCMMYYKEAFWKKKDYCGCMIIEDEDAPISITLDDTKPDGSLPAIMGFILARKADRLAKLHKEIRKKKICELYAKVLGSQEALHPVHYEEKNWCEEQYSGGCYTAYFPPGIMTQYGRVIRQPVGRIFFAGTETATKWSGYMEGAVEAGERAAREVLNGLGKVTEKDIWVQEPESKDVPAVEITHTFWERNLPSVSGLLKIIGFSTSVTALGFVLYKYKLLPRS
Description: (§10) Recombinant MAO-A and MAO-B were used to test the MAO inhibitory activity using the substrates kynuramine and benzylamine (0.06 mM and 0.3 mM, respectively). […] Chemicals were from Sigma-Aldrich.
as §9

BACE-1 = molecular target: T3, BACE-1 (Homo sapiens, UniProt P56817); test: BACE-1 inhibition (β-secretase activity detection kit); type: biochemical; settings: 10 µM compound; read-out: Residual activity at 10 µM (%) BACE-1
T3 construct: purchased Sigma-Aldrich
T3 sequence (P56817 46-501): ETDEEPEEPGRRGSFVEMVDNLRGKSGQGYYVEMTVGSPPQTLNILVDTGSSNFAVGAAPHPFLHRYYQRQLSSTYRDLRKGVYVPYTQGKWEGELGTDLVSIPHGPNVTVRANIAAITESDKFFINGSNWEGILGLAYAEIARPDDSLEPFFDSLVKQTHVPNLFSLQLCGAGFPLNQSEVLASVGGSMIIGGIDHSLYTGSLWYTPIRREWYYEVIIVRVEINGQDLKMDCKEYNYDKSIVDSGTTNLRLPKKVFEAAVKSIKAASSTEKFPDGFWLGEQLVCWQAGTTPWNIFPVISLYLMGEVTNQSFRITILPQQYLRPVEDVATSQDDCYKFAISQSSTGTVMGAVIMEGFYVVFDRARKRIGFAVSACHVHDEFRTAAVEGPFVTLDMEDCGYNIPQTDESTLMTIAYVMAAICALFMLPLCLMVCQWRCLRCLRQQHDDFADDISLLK
Description: as §7
as §8, with “Seoul, Korea). […]” for “Seoul, Korea).”

MAO-B [3] = molecular target: T1, MAO-B; test: Reversibility of MAO-B inhibition by dialysis; type: biochemical; settings: for Reversibility of MAO-B inhibition: dialysis experiment; for Relative MAO-B activity, dialyzed (AD) / Relative MAO-B activity, undialyzed (AU): ~2 × IC50 (DM2 0.13, DM18 0.24, lazabemide 0.22, pargyline 0.28 µM), 30 min preincubation; for Relative MAO-B activity, dialyzed (AD): after dialysis
Description: To identify the reversibility patterns, the relative activities for samples dialyzed (AD) and for those undialyzed (AU) were compared.
By contrasting the recovery results of samples that had been dialyzed (AD) and undialyzed (AU), reversibility patterns were determined.

BChE = BChE (Equus caballus, UniProt P81908); test: biochemical; settings: read-out: Residual activity at 10 µM (%) BChE
BChE, sequence (P81908 whole entry): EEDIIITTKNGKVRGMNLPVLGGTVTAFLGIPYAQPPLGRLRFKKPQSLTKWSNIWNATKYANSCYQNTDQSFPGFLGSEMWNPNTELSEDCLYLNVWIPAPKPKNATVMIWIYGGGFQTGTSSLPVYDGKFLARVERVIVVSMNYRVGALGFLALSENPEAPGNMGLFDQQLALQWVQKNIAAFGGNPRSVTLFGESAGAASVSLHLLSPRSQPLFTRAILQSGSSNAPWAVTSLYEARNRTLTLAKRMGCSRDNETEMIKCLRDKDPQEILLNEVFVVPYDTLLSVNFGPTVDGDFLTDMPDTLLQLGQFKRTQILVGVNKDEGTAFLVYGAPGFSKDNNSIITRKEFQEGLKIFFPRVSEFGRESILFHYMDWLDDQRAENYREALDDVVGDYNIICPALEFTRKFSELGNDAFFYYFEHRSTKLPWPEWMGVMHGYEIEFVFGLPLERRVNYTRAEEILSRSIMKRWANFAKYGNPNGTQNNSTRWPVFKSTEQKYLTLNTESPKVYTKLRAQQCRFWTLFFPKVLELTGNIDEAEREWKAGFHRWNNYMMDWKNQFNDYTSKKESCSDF
Description: as §7
as §8, with “Seoul, Korea). […]” for “Seoul, Korea).”

MAO-B [4] = molecular target: T1, MAO-B; test: MAO-B inhibition assay (recombinant enzyme, benzylamine substrate); type: biochemical
Description: as §10, §9

Structure (SMILES)	Morphological observation of Vero cells (Vero cells)	IC50 at 48 h ([1]; Vero cells (kidney epithelial cells), 10–500 µg/mL, read-out: IC50 (Vero cell viability)) [µg/mL]	viability at 48 h, 100 µg/mL ([1]; 100 µg/mL, read-out: Cells alive (relative cell viability)) [%]	remaining activity at 10 µM (AChE) [%]	Inhibition pattern of MAO-B (MAO-B [2])	Ki (MAO-B [2]) [nM]	remaining activity at 10 µM (MAO-A) [%]	IC50 (MAO-A) [µM]	remaining activity at 10 µM (BACE-1) [%]	Reversibility of MAO-B inhibition (MAO-B [3])	Relative MAO-B activity, dialyzed (AD) (MAO-B [3]) [%]	Relative MAO-B activity, undialyzed (AU) (MAO-B [3]) [%]	remaining activity at 10 µM (BChE) [%]	remaining activity at 10 µM (MAO-B [4]; 10 µM compound, recombinant MAO-B, benzylamine 0.3 mM, read-out: Residual Activity at 10 µM (%) MAO-B) [%]	SI (selectivity index for MAO-B as compared to MAO-A) (MAO-B [4]; IC50 MAO-A divided by IC50 MAO-B)	Times more MAO-B inhibition than meta-F analogue DM19 (MAO-B [4]; ortho-F (DM18) versus meta-F (DM19))	IC50 (MAO-B [4]; recombinant MAO-B, benzylamine 0.3 mM, read-out: IC50 (µM) MAO-B) [µM]
COc1ccc(C(=O)/C=C/c2ccccc2Cl)c(OC)c1 [DM2]	cytotoxicity was evident in cell shrinkage and blebbing, and cellular density decreased	183 (≈ 605 µM)	80	71.9 ± 2.87	competitive inhibitors	32 ± 4	41.5 ± 1.59	6.29 ± 0.432	100.5 ± 0.18	reversible	74.0	36.0	64.16 ± 0.44				
COc1ccc(C(=O)/C=C/c2ccccc2F)cc1OC [DM18]				78.5 ± 4.89	competitive inhibitors	45 ± 1	100 ± 0.01	> 40	99.94 ± 0.01	reversible	76.6	40.1	59.5 ± 4.08	8.87 ± 1.08	>338.98	3.75	0.118 ± 0.036
